Experimental data published in patent US10829488B2, “N-(phenylsulfonyl)benzamides and related compounds as bcl-2 inhibitors” (THE REGENTS OF THE UNIVERSITY OF MICHIGAN, priority 2016, dated 2020).
Like-named read-outs stand apart in the source and are kept apart here.

Key:
[1] = Pharmacokinetics in rats; details: rat, in vivo
Protocol: The pharmacokinetics of ABT-199 and representative Compounds of the Disclosure were evaluated in rats at an IV dose of 2 mg/kg and an oral dose of 20 mg/kg.

[2] = system: RS4;11 leukemia xenograft; assay: Antitumor activity in RS4;11 leukemia xenograft model; type: in vivo; details: nude mice, oral gavage, treatment started day 11, FIG. 3
Protocol: (§1) The antitumor activity of Cpd. No. 6 (compound 6) was also studied in the RS4;11 leukemia xenograft model. Human RS4;11 tumor cells were injected into nude mice and treatment started on day 11 when the tumor size reached approximately 100 mm^3. Cpd. No. 6 was administered via oral gavage at indicated doses and schedules. Cpd.

[3] = Mouse weight in RS4;11 leukemia xenograft model; type: in vivo; details: nude mice, oral gavage, FIG. 4
Protocol: as §1

[4] = IV 2 mg/kg, read-out: AUC0-∞ (ng · h/mL) IV
[5] = oral 20 mg/kg, read-out: AUC0-∞ (ng · h/mL) PO

SMILES | AUC(0-inf) [1, 4] | AUC(0-inf) [1, 5] | Antitumor activity (tumor growth) [2] | Mouse weight [3]
O=C(NS(=O)(=O)c1ccc(NC[C@H]2COCCO2)c([N+](=O)[O-])c1)c1ccc(N2CCN(CC3=C(c4ccc(Cl)cc4)CC4(CCC4)CC3)CC2)cc1Oc1cnc2[nH]ccc2c1 [Cpd. No. 6, (S)-N-((4-(((1,4-dioxan-2-yl)methyl)amino)-3-nitrophenyl)sulfonyl)-2-((1H-pyrrolo[2,3-b]pyridin-5-yl)oxy)-4-(4-((6-(4-chlorophenyl)spiro[3.5]non-6-en-7-yl)methyl)piperazin-1-yl)benzamide] | 2.92 µg·h/mL | 13.5 µg·h/mL | inhibits tumor growth | does not cause weight loss
CC1(C)CCC(CN2CCN(c3ccc(C(=O)NS(=O)(=O)c4ccc(NCC5CCOCC5)c([N+](=O)[O-])c4)c(Oc4cnc5[nH]ccc5c4)c3)CC2)=C(c2ccc(Cl)cc2)C1 [ABT-199, Venetoclax, reference compound] | 5.45 µg·h/mL | 20.8 µg·h/mL |  | 
O=C(NS(=O)(=O)c1ccc(NCC2CCOCC2)c([N+](=O)[O-])c1)c1ccc(N2CCN(CC3=C(c4ccc(Cl)cc4)CC4(CCC4)CC3)CC2)cc1Oc1cnc2[nH]ccc2c1 [Cpd. No. 3, 2-((1H-pyrrolo[2,3-b]pyridin-5-yl)oxy)-4-(4-((6-(4-chlorophenyl)spiro[3.5]non-6-en-7-yl)methyl)piperazin-1-yl)-N-((3-nitro-4-(((tetrahydro-2H-pyran-4-yl)methyl)amino)phenyl)sulfonyl)benzamide] | 2.68 µg·h/mL | 7.78 µg·h/mL |  | 
